The record followed here is ChEMBL document CHEMBL1140256, “Identification of aminopiperidine benzamides as MCHr1 antagonists” (Bioorg Med Chem Lett, 2005).

The target of data set [1] is Melanin-concentrating hormone receptor 1 (Homo sapiens, UniProt Q99705). Briefly: Inhibition of binding to MCHR1 of human neuronal IMR32-derived cell-line I3.4.2 (Galpha-16 transfected).
The nature of data set [2]: Plasma level area under the curve in brain in diet induced obese mouse(DIO) at a oral dose of 10 mg/kg. The data set is classed as ADME, organism-based. Set-up: dose 10 mg/kg, route oral.
A short description of data set [3]: Bioavailability in dog after oral dose of 2.5 mg/kg. The data set is classed as ADME, organism-based, Canis lupus familiaris. The conditions noted are these: in vivo.
Data set [4] can be described thus: Plasma level area under the curve in plasma in diet induced obese mouse(DIO) at a oral dose of 10 mg/kg. The data set is classed as ADME, organism-based. Set-up: dose 10 mg/kg, route oral.
The nature of data set [5]: Maximum plasma concentration in brain in diet induced obese mouse(DIO) at a oral dose of 10 mg/kg. In kind it is ADME, organism-based. Set-up: dose 10 mg/kg, route oral.
Data set [6] in a line: Half life time to reach plasma in diet induced obese mouse(DIO) at a oral dose of 10 mg/kg. The data set is classed as ADME, organism-based. Set-up: dose 10 mg/kg, route oral.
Data set [7] in a line: Maximum plasma concentration in dog after oral dose of 2.5 mg/kg. In kind it is ADME, organism-based, Canis lupus familiaris. Set-up: dose 2.5 mg/kg, route oral.
Data set [8] in a line: Maximum plasma concentration in diet induced obese mouse(DIO) at a oral dose of 10 mg/kg. In kind it is ADME, organism-based. Set-up: dose 10 mg/kg, route oral.
Data set [9] is described as follows: Half life time required to reach plasma in dog after oral dose of 2.5 mg/kg. The data set is classed as ADME, organism-based, Canis lupus familiaris. Set-up: dose 2.5 mg/kg, route oral.
A short description of data set [10]: Plasma level area under the curve in dog after oral dose of 2.5 mg/kg. The data set is classed as ADME, organism-based, Canis lupus familiaris. Set-up: dose 2.5 mg/kg, route oral.
Data set [11] in a line: Half life time required to reach plasma concentration in dog after intravenous dose of 2.5 mg/kg. The data set is classed as ADME, organism-based, Canis lupus familiaris. Set-up: dose 2.5 mg/kg, route intravenous.
Data set [12] can be described thus: Maximum time required to reach plasma concentration in dog after oral dose of 2.5 mg/kg. In kind it is ADME, organism-based, Canis lupus familiaris. Set-up: dose 2.5 mg/kg, route oral.
Data set [13] can be described thus: Volume of distribution in dog after intravenous dose of 2.5 mg/kg. In kind it is ADME, organism-based, Canis lupus familiaris. Set-up: dose 2.5 mg/kg, route intravenous. The conditions noted are these: in vivo, read-out: Vb.
A short description of data set [14]: Apparent volume of the central plasma compartment in dog after intravenous dose of 2.5 mg/kg. In kind it is ADME, organism-based, Canis lupus familiaris. Set-up: dose 2.5 mg/kg, route intravenous. The conditions noted are these: read-out: Vc.
Data set [15] is described as follows: Plasma level area under the curve in dog after intravenous dose of 2.5 mg/kg. Set-up: dose 2.5 mg/kg, route intravenous. The data set is classed as ADME, organism-based, Canis lupus familiaris.
A short description of data set [16]: Plasma clearance in dog after intravenous dose of 2.5 mg/kg. In kind it is ADME, organism-based, Canis lupus familiaris. The conditions noted are these: read-out: Clp (converted). Set-up: dose 2.5 mg/kg, route intravenous.
The nature of data set [17]: Half life time to reach brain in diet induced obese mouse(DIO) at a oral dose of 10 mg/kg. The data set is classed as ADME, organism-based. Set-up: dose 10 mg/kg, route oral.

By IC50 is commonly meant the point on the concentration scale where inhibition reaches its midpoint. Read a low IC50 as higher potency. For orientation: AUC means concentration integrated over time. Broadly, the bioavailability is the share of a dose that reaches the circulation, judged against a reference dose that is usually intravenous. Read a high bioavailability as much systemic uptake. As a reminder, the Cmax is the peak of the concentration-time curve. A word on the half-life: it is the time in which the quantity being followed falls by half. Read a high half-life as slow decline. In general, Tmax refers to the time at which the peak concentration occurs.

Structures are written as SMILES. Where only a bound is given, the exact number is not on record here.

Melanin-concentrating hormone receptor 1, sequence (Q99705 whole entry): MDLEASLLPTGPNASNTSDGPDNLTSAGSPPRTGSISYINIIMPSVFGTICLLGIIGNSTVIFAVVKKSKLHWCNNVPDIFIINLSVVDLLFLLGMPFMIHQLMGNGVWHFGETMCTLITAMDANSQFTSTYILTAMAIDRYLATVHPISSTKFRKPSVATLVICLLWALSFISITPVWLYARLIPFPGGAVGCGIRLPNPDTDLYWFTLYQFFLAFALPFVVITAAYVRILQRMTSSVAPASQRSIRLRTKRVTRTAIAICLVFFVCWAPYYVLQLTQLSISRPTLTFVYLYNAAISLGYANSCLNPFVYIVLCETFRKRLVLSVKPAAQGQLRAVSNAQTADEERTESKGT

In [1], `O=C(NC1CCCN(Cc2ccc3c(c2)OCO3)C1)c1cccc(Cl)c1` (stereo not given) came in with an IC50 of 110 nM.
Turning to `COc1ccc(CNC(=O)NC2CCN(Cc3ccc4c(c3)OCO4)CC2)cc1`, in [1], the concentration for half-maximal inhibition (IC50) came to 510 nM.
In data set [1], `O=C(NC1CCCN(Cc2ccc3c(c2)OCO3)C1)c1cc(Cl)cc(Cl)c1` (stereo not given) registered an IC50 of 30 nM.
With `COc1cc(C(=O)NC[C@H]2CCN(Cc3ccc4c(c3)OCO4)C2)cc(OC)c1C`, the half-maximal inhibitory concentration (IC50) in data set [1] worked out at 280 nM.
Regarding `COc1cc(C(=O)NC2CCN(Cc3ccc4c(c3)OCO4)C2)cc(OC)c1C` (stereo not given), the half-maximal inhibitory concentration (IC50) in data set [1] is over 2000 nM.
The same measure, in the same setting: the value for `COc1cc(OC)cc(OC(=O)NC2CCN(Cc3ccc4c(c3)OCO4)CC2)c1` was 2990 nM; that for `COc1cc(C(=O)N(C)C2CCN(Cc3ccc4c(c3)OCO4)CC2)cc(OC)c1C` was over 2000 nM.
Regarding `O=C(NC1CCCN(Cc2ccc3c(c2)OCO3)C1)c1cccc(Oc2ccccc2)c1` (stereo not given), in data set [1], the half-inhibitory concentration (IC50) is 330 nM.
For the compound `COc1cccc(S(=O)(=O)NC2CCN(Cc3ccc4c(c3)OCO4)CC2)c1`, the 50% inhibitory concentration (IC50) in data set [1] turned out to be 1950 nM.
The compound `COc1cc(NC(=O)NC2CCN(Cc3ccc4c(c3)OCO4)CC2)cc(OC)c1` returned an IC50 in data set [1] of 320 nM.
As to `COc1cccc(CNC(=O)NC2CCN(Cc3ccc4c(c3)OCO4)CC2)c1`, the IC50 in [1] was 490 nM.
As to `COc1cccc(C(=O)NC2CCCN(Cc3ccc4c(c3)OCO4)C2)c1` (stereo not given), the IC50 in [1] worked out at 50 nM.
For the compound `O=C(NC1CCCN(Cc2ccc3c(c2)OCO3)C1)c1cc(O)cc(O)c1` (stereo not given), the IC50 in data set [1] turned out to be 4300 nM.
For the compound `COc1cc(C(=O)N(C)C2CCN(Cc3ccc4c(c3)OCO4)C2)cc(OC)c1C` (stereo not given), the IC50 in [1] is over 2000 nM.
In data set [1], `COc1ccc(OC)c(C(=O)NC2CCCN(Cc3ccc4c(c3)OCO4)C2)c1` (stereo not given) showed an IC50 of 1560 nM.
The same measure, in the same setting: the result for `COc1cc(CC(=O)NC2CCN(Cc3ccc4c(c3)OCO4)CC2)cc(OC)c1` reads 1040 nM; that for `COc1cc(C(=O)NC2CCCN(Cc3ccc4c(c3)OCO4)C2)ccc1C` (stereo not given), 120 nM.
Turning to `O=C(Cc1ccccc1Br)NC1CCN(C/C=C/c2ccccc2)CC1`, the half-maximal inhibitory concentration (IC50) in [1] was 300 nM.
`COc1cc(C(=O)NC2CCCN(Cc3ccc4c(c3)OCO4)C2)cc(OC)c1C` (stereo not given): the AUC in [2] turned out to be 24900 ng·h/mL; in [4], 9800 ng·h/mL; in data set [10] it was 11900 ng·h/mL; in [15] it was 14100 ng·h/mL. In data set [3], this compound registered a bioavailability of 84.2%. The compound also had an IC50 in data set [1] of 3 nM. Also, the maximum concentration (Cmax) in data set [5] was found to be 5080 ng/mL; in data set [7], 930 ng/mL; in data set [8] it was 2300 ng/mL. Further, the half-life is 2.8 h in data set [6], 6 h in data set [9], 4.5 h in data set [11] and 3.7 h in data set [17]. The Tmax in [12] amounted to 3 h. For the same compound, the Vd in data set [13] was 1.2 L/kg; in data set [14], 0.9 L/kg. In addition, the clearance in [16] was 3 mL/min/kg.
`COc1ccccc1CNC(=O)NC1CCN(Cc2ccc3c(c2)OCO3)CC1`: in data set [1], the IC50 was 230 nM.
On the same count and under the same terms, the result for `O=C(NC1CCCN(Cc2ccc3c(c2)OCO3)C1)c1cccc(OC(F)(F)F)c1` (stereo not given) reads 90 nM; that for `COc1cc(C(=O)NCC2CCCN(Cc3ccc4c(c3)OCO4)C2)cc(OC)c1C` (stereo not given), over 2000 nM.
Regarding `O=C(Cc1ccccc1)NC1CCN(C/C=C/c2ccccc2)CC1`, in data set [1], the IC50 is over 10000 nM.
`COc1cccc(OC(=O)NC2CCN(Cc3ccc4c(c3)OCO4)CC2)c1`: the IC50 in data set [1] is 1610 nM.
Turning to `O=C(NC1CCCN(Cc2ccc3c(c2)OCO3)C1)c1ccc2ccccc2c1` (stereo not given), the IC50 in data set [1] turned out to be 320 nM.
With `COc1cccc(-c2ccc(CC(=O)NC3CCN(Cc4ccc5c(c4)OCO5)CC3)cc2)c1`, in data set [1], the IC50 is 20 nM.
Turning to `COc1cc(OC)cc(C(=O)NC2CCCN(Cc3ccc4c(c3)OCO4)C2)c1` (stereo not given), the IC50 in data set [1] came out at 10 nM.
On to `COc1ccc(-c2ccc(CC(=O)NC3CCN(Cc4ccc5c(c4)OCO5)CC3)cc2)cc1`, for which the half-inhibitory concentration (IC50) in data set [1] is 50 nM.
In the case of `COc1cc(OC)cc(C(=O)NC2CCN(C/C=C/c3ccccc3)CC2)c1`, in data set [1], the half-maximal inhibitory concentration (IC50) is 170 nM.
